Experiments:
Assay in all cases: relative viability (nuclei count vs DMSO), 5 days (fraction); higher = more cells survive
[1] = compound: O=C(O)c1ccc2c(c1)nc(Nc1cccc(Cl)c1)c1ccncc12 [Silmitasertib] + Cc1nc(NC(=O)N2CCC[C@H]2C(N)=O)sc1-c1ccnc(C(C)(C)C(F)(F)F)c1 [Alpelisib] (partner 2 µM)
In short: (§1)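 Relative viability is defined as nuclei in treated wells over nuclei in vehicle wells. Duplicate plates were run and medians reported. Lung cancer cell lines in 1536-well plates were dosed by pin tool one day after seeding, with one drug or with a fixed anchor-drug dose plus five library-drug doses (not always all listed) in √10 steps, and nuclei were counted after 5 days.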

[2] = compound: O=C(O)c1ccc2c(c1)nc(Nc1cccc(Cl)c1)c1ccncc12 [Silmitasertib] + Cc1nc(Nc2ncc(C(=O)Nc3c(C)cccc3Cl)s2)cc(N2CCN(CCO)CC2)n1 [Dasatinib] (partner 0.075 µM)
In short: as §1

[3] = compound: O=C(O)c1ccc2c(c1)nc(Nc1cccc(Cl)c1)c1ccncc12 [Silmitasertib] + CS(=O)(=O)N1CCN(Cc2cc3nc(-c4cccc5[nH]ncc45)nc(N4CCOCC4)c3s2)CC1 [Pictilisib] (partner 1 µM)
In short: as §1

[4] = compound: O=C(O)c1ccc2c(c1)nc(Nc1cccc(Cl)c1)c1ccncc12 [Silmitasertib] + N=C(N)NC(=N)NCCc1ccccc1 [Phenformin] (partner 250 µM)
In short: as §1

[5] = compound: O=C(O)c1ccc2c(c1)nc(Nc1cccc(Cl)c1)c1ccncc12 [Silmitasertib] + CS(=O)(=O)CCNCc1ccc(-c2ccc3ncnc(Nc4ccc(OCc5cccc(F)c5)c(Cl)c4)c3c2)o1 [Lapatinib] (partner 2 µM)
In short: as §1

Cell Line | relative viability ([1]; first compound 0.04 µM) | relative viability ([1]; first compound 0.4 µM) | relative viability ([1]; first compound 1.265 µM) | relative viability ([1]; first compound 4 µM) | relative viability ([2]; first compound 0.04 µM) | relative viability ([2]; first compound 0.4 µM) | relative viability ([2]; first compound 1.265 µM) | relative viability ([2]; first compound 4 µM) | relative viability ([3]; first compound 0.04 µM) | relative viability ([3]; first compound 0.4 µM) | relative viability ([3]; first compound 1.265 µM) | relative viability ([3]; first compound 4 µM) | relative viability ([4]; first compound 0.04 µM) | relative viability ([4]; first compound 0.4 µM) | relative viability ([4]; first compound 1.265 µM) | relative viability ([4]; first compound 4 µM) | relative viability ([5]; first compound 0.04 µM) | relative viability ([5]; first compound 0.4 µM) | relative viability ([5]; first compound 1.265 µM) | relative viability ([5]; first compound 4 µM)
NCI-H520 | 0.932 | 1.01 | 1.16 | 0.832 | 0.274 | 0.215 | 0.196 | 0.193 | 0.263 | 0.298 | 0.258 | 0.224 | 0.677 | 0.492 | 0.605 | 0.429 | 0.93 | 0.902 | 0.773 | 0.438
NCI-H596 | 0.47 | 0.429 | 0.382 | 0.444 | 0.617 | 0.563 | 0.463 | 0.497 | 0.393 | 0.384 | 0.36 | 0.336 | 0.655 | 0.632 | 0.735 | 0.573 | 1.06 | 1.04 | 0.833 | 0.977
NCI-H647 | 1.37 | 1.09 | 0.688 | 0.465 | 0.185 | 0.266 | 0.171 | 0.0776 | 0.546 | 0.462 | 0.33 | 0.153 | 0.513 | 0.303 | 0.477 | 0.189 | 1.37 | 0.801 | 0.716 | 0.328
NCI-H650 | 1.16 | 0.648 | 1.09 | 0.99 | 0.479 | 0.373 | 0.375 | 0.285 | 1.08 | 0.817 | 0.614 | 0.75 | 0.542 | 0.339 | 0.377 | 0.235 | 1.13 | 0.722 | 0.525 | 0.272
NCI-H661 | 0.784 |  | 0.547 | 0.338 | 1.13 | 0.723 | 0.607 | 0.569 | 0.461 | 0.298 | 0.243 | 0.271 | 0.287 | 0.339 | 0.283 | 0.276 | 0.522 |  | 0.477 | 0.661
NCI-H727 | 0.611 | 0.506 | 0.493 | 0.297 | 0.326 | 0.358 | 0.272 | 0.379 | 0.608 | 0.392 | 0.381 | 0.32 | 0.692 | 0.488 | 0.511 | 0.348 | 1.05 | 0.608 | 0.855 | 0.527
NCI-H838 | 1.05 |  | 0.967 | 0.556 | 0.323 | 0.325 | 0.372 | 0.254 | 0.463 |  | 0.434 | 0.359 | 0.708 |  | 0.513 | 0.362 | 1.28 |  | 0.753 | 0.465
NCI-H1355 | 0.911 |  | 0.721 | 0.766 | 0.766 |  | 0.578 | 0.485 | 0.419 |  | 0.367 | 0.293 | 0.457 |  | 0.46 | 0.43 | 1.08 |  | 0.883 | 0.726
NCI-H1395 | 1.15 | 0.728 | 1.03 | 0.965 | 0.471 | 0.387 | 0.431 | 0.414 | 0.623 | 0.492 | 0.587 | 0.427 | 0.495 | 0.436 | 0.49 | 0.373 | 1.29 | 0.672 | 0.919 | 0.68
NCI-H1437 | 0.976 |  | 0.741 | 0.498 | 0.483 | 0.376 | 0.272 | 0.322 | 0.42 |  | 0.261 | 0.217 | 0.327 | 0.334 | 0.305 | 0.278 | 0.865 |  | 0.483 | 0.347
NCI-H1563 | 0.922 | 0.734 | 0.923 | 0.92 | 0.493 | 0.486 |  | 0.431 | 0.62 | 0.679 | 0.68 | 0.578 | 0.711 | 0.714 | 0.655 | 0.627 | 1.13 | 0.925 | 0.909 | 0.877
NCI-H1651 | 0.951 | 1.03 | 0.952 | 0.86 | 0.49 | 0.387 | 0.448 | 0.384 | 0.615 | 0.657 | 0.669 | 0.543 | 0.339 | 0.321 | 0.378 | 0.363 | 1.08 | 0.997 | 0.99 | 0.626
NCI-H1666 | 1.03 | 0.781 | 0.61 | 0.505 | 0.837 | 0.664 | 0.623 | 0.615 | 0.465 | 0.499 | 0.321 | 0.307 | 0.571 | 0.582 | 0.607 | 0.511 | 0.734 | 0.564 | 0.452 | 0.319
NCI-H1734 | 0.688 |  | 0.649 | 0.66 | 0.498 | 0.422 | 0.471 | 0.487 | 0.514 |  | 0.424 | 0.313 | 0.499 | 0.358 | 0.42 | 0.357 | 1.14 |  | 0.948 | 0.785
NCI-H1755 | 0.981 | 0.912 | 0.908 | 0.987 | 0.382 | 0.419 | 0.408 | 0.363 | 0.431 | 0.441 | 0.441 | 0.375 | 0.643 | 0.601 | 0.637 | 0.586 | 1.03 | 0.979 | 1.07 | 1.16
NCI-H1792 | 0.671 | 0.595 | 0.683 | 0.727 | 0.869 | 0.806 | 0.824 | 0.921 | 0.28 | 0.294 | 0.283 | 0.286 | 0.29 | 0.24 | 0.327 | 0.103 | 0.886 | 0.711 | 0.874 | 0.608
NCI-H1793 | 0.694 | 0.619 | 0.656 | 0.564 | 0.382 | 0.324 | 0.357 | 0.393 | 0.374 | 0.247 | 0.274 | 0.31 | 0.396 | 0.29 | 0.346 | 0.373 | 0.979 | 0.728 | 0.437 | 0.488

Source: the supplement of paper PMC10307832
